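Values below derive from 48-hour exposures of cells grown in 96-well plates, with endpoints linearly interpolated between the two concentrations bracketing the appropriate inhibition level. GI50: concentration for 50% inhibition of growth.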 Activity calls are given as the source filed them. Rule as the data show it: active = GI50 up to about 1.1 µM and inactive = higher.
Key:
Experiment in all cases: inhibition of tumour cell growth, NCI panel, 48 h
[1] = test system: SK-MEL-2
[2] = test system: A498
[3] = test system: COLO 205
[4] = test system: LOX IMVI
[5] = test system: RPMI-8226
[6] = test system: CAKI-1
[7] = test system: MCF7
[8] = test system: HCT-116
[9] = test system: SF-268
[10] = test system: OVCAR-4
[11] = test system: SK-MEL-5
[12] = test system: OVCAR-3
[13] = test system: NCI/ADR-RES
[14] = test system: SW-620
[15] = test system: U-251
[16] = test system: EKVX
[17] = test system: A549
[18] = test system: SK-OV-3
[19] = test system: KM12
[20] = test system: Malme-3M

Measured: GI50

N/C(=N\O)N/N=C/c1ccc2c(c1)OCCO2
inactive: [1] 9.08 µM | [2] 27.2 µM | [3] 7.28 µM | [4] 8.09 µM | [5] 16.8 µM | [6] 16.4 µM | [7] 22.1 µM | [8] 21.7 µM | [9] 4.81 µM | [10] 8.91 µM | [11] 7.21 µM | [12] 3.15 µM | [13] 11.1 µM | [14] 28.2 µM | [15] 21.3 µM | [16] 9.27 µM | [17] 4.7 µM | [18] 34 µM | [19] 5.04 µM

COc1ccc2nc3cc([N+](=O)[O-])ccc3c(Nc3ccc(S(=O)(=O)Nc4ncccn4)cc3)c2c1
inactive: [1] > 43.4 µM | [3] 40.3 µM | [4] > 73.8 µM | [5] 14.5 µM | [6] > 100 µM | [7] 15.3 µM | [8] 40.6 µM | [9] 40 µM | [10] > 100 µM | [20] 48.3 µM | [11] 41.6 µM | [12] > 50.4 µM | [13] > 100 µM | [14] > 76.7 µM | [15] > 55 µM | [16] > 100 µM | [17] > 100 µM | [18] > 100 µM | [19] 31.7 µM

S=C1C=C(c2ccccc2)Sc2ccccc2N1
inactive: [3] > 100 µM | [4] > 100 µM | [5] > 100 µM | [6] > 100 µM | [7] > 100 µM | [8] 79.8 µM | [9] > 100 µM | [10] > 100 µM | [20] > 100 µM | [11] 74.6 µM | [12] > 100 µM | [13] > 100 µM | [15] > 100 µM | [16] > 100 µM | [17] > 100 µM | [18] > 100 µM | [19] > 100 µM

O=C1/C(=C/c2ccc(Cl)cc2)Sc2scc(-c3cccc([N+](=O)[O-])c3)[n+]21
inactive: [1] 12.9 µM | [3] 1.86 µM | [4] 3.01 µM | [5] 1.39 µM | [6] 3.01 µM | [7] 3.91 µM | [8] 2.06 µM | [9] 2.95 µM | [10] 6.97 µM | [11] 2.61 µM | [12] 8.09 µM | [13] 2.37 µM | [14] 1.76 µM | [15] 4.55 µM | [16] 4.18 µM | [17] 13.6 µM | [18] 10.5 µM | [19] 2.89 µM

Cn1c2ccccc2c2c3c(c4c5ccccc5n(C)c4c21)C(=O)c1ccccc1C3=O
inactive: [1] 40.3 µM | [3] 57.7 µM | [4] 37.3 µM | [5] 70 µM | [6] 33.9 µM | [7] 67.1 µM | [8] 30.1 µM | [10] 58.3 µM | [20] 29.5 µM | [11] 56 µM | [12] 41.8 µM | [13] 61.1 µM | [14] 79.1 µM | [15] 17.9 µM | [16] 44.9 µM | [17] 59.4 µM | [18] 48.9 µM | [19] 86.9 µM

O=C1NC(=S)NC(=O)C1=Cc1ccc(-c2ccccc2)cc1
inactive: [1] > 100 µM | [3] > 100 µM | [4] 69.3 µM | [5] 66.2 µM | [6] > 100 µM | [7] 72.8 µM | [8] 51.3 µM | [9] > 100 µM | [10] > 100 µM | [20] > 100 µM | [11] > 100 µM | [12] > 100 µM | [13] 27.9 µM | [14] > 100 µM | [15] 54.1 µM | [16] > 100 µM | [17] > 100 µM | [18] > 100 µM | [19] > 100 µM

C/C(=N/O)c1cccc(Nc2nc3ccccc3c3[nH]c4ccccc4c23)c1
inactive: [1] 2.25 µM | [3] 2.24 µM | [4] 2.22 µM | [5] 2.26 µM | [6] 2.75 µM | [7] 1.48 µM | [8] 1.16 µM | [9] 1.87 µM | [10] 2.33 µM | [20] 3.92 µM | [11] 1.63 µM | [12] 2.22 µM | [13] 2.99 µM | [14] 1.63 µM | [15] 3.16 µM | [16] 2.29 µM | [17] 2.22 µM | [18] 5.98 µM | [19] 2.58 µM

CC[C@@H]1ON(C)[C@H]2CN(C)C(=O)[C@@H]12
inactive: [1] > 100 µM | [3] > 100 µM | [4] > 100 µM | [5] > 100 µM | [6] > 100 µM | [7] > 100 µM | [8] > 100 µM | [10] > 100 µM | [11] > 100 µM | [12] > 100 µM | [13] > 100 µM | [14] > 100 µM | [15] > 100 µM | [17] > 100 µM | [18] > 100 µM

Cc1ccc(-c2cc(=O)c(=O)[nH][nH]2)cc1
inactive: [1] > 100 µM | [2] > 100 µM | [3] > 100 µM | [4] > 100 µM | [6] > 100 µM | [7] > 100 µM | [8] > 100 µM | [9] > 100 µM | [10] > 100 µM | [11] > 100 µM | [12] > 100 µM | [13] > 100 µM | [14] > 100 µM | [15] > 100 µM | [16] > 100 µM | [17] > 100 µM | [18] > 100 µM | [19] > 100 µM

CC1(C)OCC=CCO1
inactive: [1] > 100 µM | [3] > 100 µM | [4] 50.9 µM | [5] > 100 µM | [6] > 100 µM | [7] 56 µM | [8] > 100 µM | [9] > 100 µM | [10] > 100 µM | [20] > 100 µM | [11] > 100 µM | [12] 59.7 µM | [13] > 100 µM | [14] > 100 µM | [15] > 100 µM | [16] > 100 µM | [17] > 100 µM | [18] > 100 µM | [19] > 100 µM

Source: ChEMBL document CHEMBL1201862, “PubChem BioAssay data set” (2004)
